Test results reported in paper PMC10131537, “Degradation of neurodegenerative disease-associated TDP-43 aggregates and oligomers via a proteolysis-targeting chimera” (Journal of Biomedical Science, 2023).

Biological target: T1, cereblon (CRBN) (Homo sapiens, UniProt Q96SW2)
T1 construct: GST-tagged human cereblon/DDB1, co-expressed by baculovirus; with DDB1
Experiment: competitive TR-FRET binding assay versus XL-665-labelled thalidomide

EC50: 600 nM
SMILES: CN(C)c1ccc(-c2nc3ccc(OCCOCCOCCNc4cccc5c4C(=O)N(C4CCC(=O)NC4=O)C5=O)cc3s2)cc1 (stereo not shown) [compound 2, 4-((2-(2-(2-((2-(4-(Dimethylamino)phenyl)benzo[d]thiazol-6-yl)oxy)ethoxy)ethoxy)ethyl)amino)-2-(2,6-dioxopiperidin-3-yl)isoindoline-1,3-dione]
